Results reported in ChEMBL document CHEMBL1201862, “PubChem BioAssay data set” (2004).
Calls of active or inactive are those of the source.

Columns and labels:
Coagulation factor XII = target: T1, Coagulation factor XII (Homo sapiens, UniProt P00748); type: functional;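 also: activated factor XIIa alpha cleaving a fluorogenic AMC peptide substrate; inhibitor potency from loss of enzyme activity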
T1 sequence (P00748 whole entry): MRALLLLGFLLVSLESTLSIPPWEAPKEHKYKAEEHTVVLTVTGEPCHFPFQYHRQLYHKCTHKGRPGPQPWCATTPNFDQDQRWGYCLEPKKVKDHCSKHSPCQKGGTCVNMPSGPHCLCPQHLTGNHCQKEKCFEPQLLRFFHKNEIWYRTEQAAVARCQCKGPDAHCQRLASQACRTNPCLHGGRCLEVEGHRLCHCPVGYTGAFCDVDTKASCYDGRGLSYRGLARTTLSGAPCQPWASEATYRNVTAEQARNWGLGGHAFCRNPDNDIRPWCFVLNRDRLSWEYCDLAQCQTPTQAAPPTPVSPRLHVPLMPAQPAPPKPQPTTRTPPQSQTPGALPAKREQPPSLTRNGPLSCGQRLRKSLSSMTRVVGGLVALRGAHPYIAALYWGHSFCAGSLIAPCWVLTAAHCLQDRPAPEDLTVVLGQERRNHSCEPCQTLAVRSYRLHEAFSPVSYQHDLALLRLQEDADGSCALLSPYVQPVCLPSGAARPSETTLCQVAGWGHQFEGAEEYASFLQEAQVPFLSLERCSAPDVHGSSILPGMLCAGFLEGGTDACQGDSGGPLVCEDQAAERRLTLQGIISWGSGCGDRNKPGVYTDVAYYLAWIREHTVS

Troponin, cardiac muscle = Troponin, cardiac muscle (Homo sapiens, UniProt P19429+P45379+P63316); assay: Fluorescence-based biochemical high throughput dose response assay for activators of the calcium sensitivity of cardiac Regulated Thin Filaments (RTF). [Related pubchem assays (depositor defined):AID493008, AID493018, AID504382, AID504383]; type: protein-complex assay
BJ [1] = assay: cytotoxicity toward BJ-TERT fibroblasts, dose response, cell-based, RAS-independent, luminescence (AID 1933); type: functional; details: Homo sapiens
BJ [2] = assay: cells; type: functional, cell-based; details: Homo sapiens
BJ [3] = assay: cytotoxicity toward BJ-TERT-LT-ST fibroblasts, dose response, cell-based, RAS-independent, luminescence (AID 1935); type: functional; details: Homo sapiens;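 also: BJ fibroblasts immortalized with TERT plus LT and ST oncogenes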
[4] = cytotoxicity toward DRD oncogenic fibroblasts, dose response, cell-based, non-viral oncogenic, luminescence (AID 1934); type: functional; details: Homo sapiens
Jurkat = assay: antigen receptor-induced NF-kB inhibitors, dose response, Jurkat, luciferase reporter, luminescence, B- and T-cell (AID 489004); type: functional, cell-based; details: Homo sapiens;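 also: NF-kB luciferase reporter Jurkat cells stimulated with PMA plus ionomycin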
[5] = cytotoxicity in HEK-293T NF-kB-Luc cells, dose response, cytotoxicity control for B/T-cell NF-kB inhibitor project, cell-based, uHTS hits (AID 489019); type: functional;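 also: IC50 reflects cytotoxicity as loss of cell viability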
BJ [6] = assay: cytotoxicity toward Ras-transformed BJeLR fibroblasts, dose response, cell-based, alamar blue fluorescence, cherrypicked samples (AID 2631); type: functional; details: Homo sapiens;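 also: confirmatory dose-response assay in RAS-dependent BJ fibroblasts engineered with TERT, LT and ST, with cytotoxicity read by fluorescence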
[7] = target: Beta-2 adrenergic receptor (Homo sapiens, UniProt P07550); assay: beta2AR agonists driving receptor internalization, dose response, cell-based, FAP fluorogen, flow cytometry, cherry pick 1 (AID 588763); type: functional
Sequence of Beta-2 adrenergic receptor (P07550 whole entry): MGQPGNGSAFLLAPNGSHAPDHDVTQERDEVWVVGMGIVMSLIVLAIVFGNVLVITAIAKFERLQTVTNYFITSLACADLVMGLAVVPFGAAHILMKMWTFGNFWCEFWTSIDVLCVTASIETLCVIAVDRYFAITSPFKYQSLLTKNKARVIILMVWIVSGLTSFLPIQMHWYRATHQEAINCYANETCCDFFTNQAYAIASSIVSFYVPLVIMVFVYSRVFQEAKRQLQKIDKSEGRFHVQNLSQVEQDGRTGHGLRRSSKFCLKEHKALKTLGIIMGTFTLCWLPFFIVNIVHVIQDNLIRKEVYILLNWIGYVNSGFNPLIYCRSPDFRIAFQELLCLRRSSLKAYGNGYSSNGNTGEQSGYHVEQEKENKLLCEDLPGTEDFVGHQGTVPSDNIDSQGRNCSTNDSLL

[8] = target: Peroxisome proliferator-activated receptor gamma/Nuclear receptor coactivator 1 (Homo sapiens, UniProt P37231); assay: TR-FRET dose response biochemical High Throughput Screening assay for agonists of the steroid receptor coactivator 1 (SRC-1) recruitment by the peroxisome proliferator-activated receptor gamma (PPAR gamma): non-selective agonists. [Related pubchem assays (depositor defined):AID1300, AID1808, AID504735, AID631]; type: protein assay
[9] = target: Peroxisome proliferator-activated receptor gamma/Nuclear receptor coactivator 3 (Homo sapiens, UniProt P37231); assay: TR-FRET dose response biochemical High Throughput Screening assay for agonists of the steroid receptor coactivator 3 (SRC-3) recruitment by the peroxisome proliferator-activated receptor gamma (PPAR gamma): non-selective agonists. [Related pubchem assays: 1301 (Confirmation screen.), 1048 (Primary screen.)]; type: functional
[10] = target: Peroxisome proliferator-activated receptor gamma/Nuclear receptor coactivator 2 (Homo sapiens, UniProt P37231); assay: TR-FRET dose response biochemical High Throughput Screening assay for agonists of the steroid receptor coactivator 2 (SRC-2) recruitment by the peroxisome proliferator-activated receptor gamma (PPAR gamma): non-selective agonists. [Related pubchem assays: 1297, 1032 ]; type: functional
[11] = target: T2, Ubiquitin-conjugating enzyme E2 N (Homo sapiens, UniProt P61088); type: functional;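 also: Dose-response confirmation in a TR-FRET assay detecting UBC13-driven polyubiquitin chain formation, inhibition measured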
T2 sequence (P61088 whole entry): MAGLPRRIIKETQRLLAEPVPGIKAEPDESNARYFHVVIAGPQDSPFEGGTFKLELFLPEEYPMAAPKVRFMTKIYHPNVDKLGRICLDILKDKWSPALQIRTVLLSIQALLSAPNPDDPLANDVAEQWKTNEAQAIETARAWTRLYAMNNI

Mu-type opioid receptor = Mu-type opioid receptor (Homo sapiens, UniProt P35372); type: functional, cell-based;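 also: U2OS cells with beta-arrestin recruitment to OPRM1 by beta-gal complementation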
Sequence of Mu-type opioid receptor (P35372 whole entry): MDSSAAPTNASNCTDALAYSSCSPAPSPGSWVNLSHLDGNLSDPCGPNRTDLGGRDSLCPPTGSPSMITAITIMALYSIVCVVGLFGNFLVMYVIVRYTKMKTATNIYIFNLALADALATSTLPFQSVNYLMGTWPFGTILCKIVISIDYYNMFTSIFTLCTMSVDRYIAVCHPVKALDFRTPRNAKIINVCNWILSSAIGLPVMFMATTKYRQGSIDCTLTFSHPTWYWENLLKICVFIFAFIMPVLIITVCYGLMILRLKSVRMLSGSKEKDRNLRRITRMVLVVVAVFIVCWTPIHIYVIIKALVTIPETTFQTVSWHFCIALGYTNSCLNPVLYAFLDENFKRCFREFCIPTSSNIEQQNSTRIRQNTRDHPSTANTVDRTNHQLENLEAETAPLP

[12] = target: 5-hydroxytryptamine receptor 2A (Mus musculus, UniProt P35363); type: functional, cell-based;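 also: CHO-K1 cells with tagged receptor and beta-arrestin; agonist potency measured as compound-induced activation of the receptor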
Sequence of 5-hydroxytryptamine receptor 2A (P35363 whole entry): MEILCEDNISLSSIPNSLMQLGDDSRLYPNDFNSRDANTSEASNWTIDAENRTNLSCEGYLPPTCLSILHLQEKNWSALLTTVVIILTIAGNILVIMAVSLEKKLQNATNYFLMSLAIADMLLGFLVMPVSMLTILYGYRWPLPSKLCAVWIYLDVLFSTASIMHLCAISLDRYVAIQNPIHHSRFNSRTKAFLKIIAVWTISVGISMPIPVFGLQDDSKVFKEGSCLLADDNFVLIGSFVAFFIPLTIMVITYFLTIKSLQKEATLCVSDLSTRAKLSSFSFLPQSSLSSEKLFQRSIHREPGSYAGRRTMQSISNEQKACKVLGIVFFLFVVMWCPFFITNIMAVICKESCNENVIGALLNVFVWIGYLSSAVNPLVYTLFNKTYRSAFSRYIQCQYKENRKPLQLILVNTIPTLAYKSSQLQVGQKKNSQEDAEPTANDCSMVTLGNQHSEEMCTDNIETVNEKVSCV

[13] = target: T3, Mannose-6-phosphate isomerase (Homo sapiens, UniProt P34949); assay: PMI enzyme inhibitors, confirmation, biochemical, fluorescence intensity (AID 1535)
T3 sequence (P34949 whole entry): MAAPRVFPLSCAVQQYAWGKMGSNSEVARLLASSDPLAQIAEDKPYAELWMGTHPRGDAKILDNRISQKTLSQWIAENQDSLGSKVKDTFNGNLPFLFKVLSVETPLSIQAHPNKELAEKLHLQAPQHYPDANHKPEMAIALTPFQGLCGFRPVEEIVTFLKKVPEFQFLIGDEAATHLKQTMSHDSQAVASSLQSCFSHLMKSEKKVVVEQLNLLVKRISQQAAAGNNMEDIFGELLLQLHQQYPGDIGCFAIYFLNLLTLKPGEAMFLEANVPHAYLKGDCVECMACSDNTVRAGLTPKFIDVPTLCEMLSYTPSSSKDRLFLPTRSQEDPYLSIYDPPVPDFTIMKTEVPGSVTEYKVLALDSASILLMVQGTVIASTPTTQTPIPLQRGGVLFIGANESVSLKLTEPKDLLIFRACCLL

Phosphomannomutase 2 = Phosphomannomutase 2 (Homo sapiens, UniProt O15305); assay: Counter screen SAR assay for PMM2 inhibitors via a fluorescence intensity assay. [Related pubchem assays (depositor defined):AID1545, AID1574]
Sequence of Phosphomannomutase 2 (O15305 whole entry): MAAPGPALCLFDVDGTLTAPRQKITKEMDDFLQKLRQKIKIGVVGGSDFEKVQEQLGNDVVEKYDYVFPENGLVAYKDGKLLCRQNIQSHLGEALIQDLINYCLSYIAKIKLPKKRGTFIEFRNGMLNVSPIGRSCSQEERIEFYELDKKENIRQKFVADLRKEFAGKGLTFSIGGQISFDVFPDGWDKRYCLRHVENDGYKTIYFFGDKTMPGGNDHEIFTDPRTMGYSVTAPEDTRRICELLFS

INS1 = assay: beta cell apoptosis inhibitors, cytokine rescue, dose response, luminescence, retest (AID 449756); type: functional, cell-based; details: Rattus norvegicus;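 also: cell death triggered by IL-1 beta plus TNF-alpha plus IFN-gamma mixture; protective hits raise ATP signal compared with cytokine alone wells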
[14] = Shn3 3'UTR reporter inhibitors, dose response, cell-based, Clone20 osteoblasts, firefly luciferase, cherry-picked (AID 624132); type: functional;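 also: firefly luciferase luminescence from reporter carrying the Shn3 3'UTR in osteoblasts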
[15] = HepG2 cell cytotoxicity, dose response, cytotoxicity control for Shn3 inhibitor project, CellTiter-Glo, cherry-picked (AID 624134); type: functional, cell-based
[16] = control 3'UTR Renilla luciferase suppression, dose response, counter-screen for Shn3 inhibitor project, cell-based, Clone20-Shn3RL, cherry-picked (AID 624133); type: functional
Galanin receptor type 3 = target: T4, Galanin receptor type 3 (Homo sapiens, UniProt O60755); assay: Fluorescence-based cell-based primary high throughput dose response assay to identify antagonists of the Galanin Receptor 3 (GalR3).; type: functional
T4 sequence (O60755 whole entry): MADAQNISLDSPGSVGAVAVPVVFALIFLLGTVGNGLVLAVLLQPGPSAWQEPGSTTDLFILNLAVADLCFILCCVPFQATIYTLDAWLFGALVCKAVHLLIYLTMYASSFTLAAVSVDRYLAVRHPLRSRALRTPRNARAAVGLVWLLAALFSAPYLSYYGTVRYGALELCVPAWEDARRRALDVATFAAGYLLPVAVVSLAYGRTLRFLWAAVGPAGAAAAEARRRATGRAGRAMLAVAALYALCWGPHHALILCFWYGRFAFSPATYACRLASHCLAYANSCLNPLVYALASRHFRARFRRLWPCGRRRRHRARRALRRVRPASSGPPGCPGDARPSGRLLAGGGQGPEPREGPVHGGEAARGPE

cells = type: functional, cell-based; details: HEK-CNG
[17] = target: T5, COUP transcription factor 2 (Homo sapiens, UniProt P24468); assay: Luminescence-based cell-based high throughput dose response assay to identify inhibitors of COUP-TFII (NR2F2).; type: functional;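 also: HEK293 cells transiently cotransfected with COUP-TFII expression vector and reporter; luciferase reporter luminescence driven by COUP-TFII from the pX2-168 reporter plasmid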
T5 sequence (P24468 whole entry): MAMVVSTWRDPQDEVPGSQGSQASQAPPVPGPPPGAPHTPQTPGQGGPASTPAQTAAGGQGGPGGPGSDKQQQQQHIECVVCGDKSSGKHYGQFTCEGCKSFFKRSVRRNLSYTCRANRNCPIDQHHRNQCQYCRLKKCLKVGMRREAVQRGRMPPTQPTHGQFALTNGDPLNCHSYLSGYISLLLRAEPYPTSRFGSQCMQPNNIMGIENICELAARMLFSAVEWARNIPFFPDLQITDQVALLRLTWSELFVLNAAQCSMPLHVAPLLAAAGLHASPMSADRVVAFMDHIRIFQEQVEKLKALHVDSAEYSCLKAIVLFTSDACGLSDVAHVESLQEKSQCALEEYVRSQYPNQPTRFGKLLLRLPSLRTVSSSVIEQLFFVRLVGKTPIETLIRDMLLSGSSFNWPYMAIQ

[18] = target: Dual specificity protein kinase CLK1 (Homo sapiens, UniProt P49759); assay: CLK1 kinase inhibitors, off-target check, dose response, selectivity assay for Dyrk1A inhibitor project, biochemical, cherry-picked samples (AID 588811)
Sequence of Dual specificity protein kinase CLK1 (P49759 whole entry): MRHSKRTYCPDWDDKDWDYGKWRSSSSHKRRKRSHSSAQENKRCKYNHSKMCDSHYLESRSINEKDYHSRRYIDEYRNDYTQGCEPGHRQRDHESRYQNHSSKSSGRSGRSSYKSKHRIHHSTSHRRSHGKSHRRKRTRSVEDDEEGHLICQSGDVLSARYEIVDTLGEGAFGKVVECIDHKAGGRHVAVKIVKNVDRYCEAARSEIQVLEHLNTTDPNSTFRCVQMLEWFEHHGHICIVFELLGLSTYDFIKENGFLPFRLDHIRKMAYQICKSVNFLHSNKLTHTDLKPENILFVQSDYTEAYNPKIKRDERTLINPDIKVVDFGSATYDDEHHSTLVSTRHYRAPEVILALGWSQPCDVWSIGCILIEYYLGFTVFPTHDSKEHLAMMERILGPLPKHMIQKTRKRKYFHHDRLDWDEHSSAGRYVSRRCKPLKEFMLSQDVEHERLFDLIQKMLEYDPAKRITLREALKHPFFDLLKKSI

[19] = target: Dual specificity tyrosine-phosphorylation-regulated kinase 1A (Rattus norvegicus, UniProt Q63470); type: biochemical, Homo sapiens
Cytochrome P450 2C19 = Cytochrome P450 2C19 (Homo sapiens, UniProt P33261); assay: Cytochrome panel assay with activity outcomes. Panel member name: p450-cyp2c19 Compounds with AC50 equal or less than 10 uM are considered active; type: functional
Sequence of Cytochrome P450 2C19 (P33261 whole entry): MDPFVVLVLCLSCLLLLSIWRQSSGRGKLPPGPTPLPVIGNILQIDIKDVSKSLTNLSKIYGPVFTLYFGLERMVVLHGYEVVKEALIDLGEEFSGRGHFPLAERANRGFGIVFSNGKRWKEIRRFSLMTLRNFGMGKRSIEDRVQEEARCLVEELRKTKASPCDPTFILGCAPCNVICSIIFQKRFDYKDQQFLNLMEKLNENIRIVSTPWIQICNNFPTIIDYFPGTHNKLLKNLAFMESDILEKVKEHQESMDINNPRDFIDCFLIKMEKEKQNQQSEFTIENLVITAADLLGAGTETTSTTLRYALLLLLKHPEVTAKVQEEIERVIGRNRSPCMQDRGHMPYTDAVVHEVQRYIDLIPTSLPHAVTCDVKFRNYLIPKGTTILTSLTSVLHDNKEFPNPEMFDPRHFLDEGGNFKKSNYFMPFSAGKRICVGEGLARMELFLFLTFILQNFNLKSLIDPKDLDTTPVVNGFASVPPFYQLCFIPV

Cytochrome P450 2D6 = Cytochrome P450 2D6 (Homo sapiens, UniProt P10635);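 also: CYP2D6 member of a cytochrome P450 panel assay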
Sequence of Cytochrome P450 2D6 (P10635 whole entry): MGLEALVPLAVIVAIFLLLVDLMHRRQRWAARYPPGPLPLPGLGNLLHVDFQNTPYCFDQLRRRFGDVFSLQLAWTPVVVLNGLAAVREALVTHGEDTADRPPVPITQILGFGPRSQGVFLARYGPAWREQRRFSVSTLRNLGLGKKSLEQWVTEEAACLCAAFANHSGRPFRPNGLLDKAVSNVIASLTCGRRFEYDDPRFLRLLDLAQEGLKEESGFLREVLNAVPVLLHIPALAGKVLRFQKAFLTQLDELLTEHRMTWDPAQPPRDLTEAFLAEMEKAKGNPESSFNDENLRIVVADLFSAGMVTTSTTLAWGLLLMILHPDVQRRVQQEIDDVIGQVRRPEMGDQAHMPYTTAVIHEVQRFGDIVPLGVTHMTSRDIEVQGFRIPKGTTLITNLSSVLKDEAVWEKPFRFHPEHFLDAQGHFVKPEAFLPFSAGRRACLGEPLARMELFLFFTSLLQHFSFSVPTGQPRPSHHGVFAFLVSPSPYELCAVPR

Cytochrome P450 1A2 = target: T6, Cytochrome P450 1A2 (Homo sapiens, UniProt P05177);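 also: PubChem cytochrome P450 panel assay, CYP1A2 panel member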
T6 sequence (P05177 whole entry): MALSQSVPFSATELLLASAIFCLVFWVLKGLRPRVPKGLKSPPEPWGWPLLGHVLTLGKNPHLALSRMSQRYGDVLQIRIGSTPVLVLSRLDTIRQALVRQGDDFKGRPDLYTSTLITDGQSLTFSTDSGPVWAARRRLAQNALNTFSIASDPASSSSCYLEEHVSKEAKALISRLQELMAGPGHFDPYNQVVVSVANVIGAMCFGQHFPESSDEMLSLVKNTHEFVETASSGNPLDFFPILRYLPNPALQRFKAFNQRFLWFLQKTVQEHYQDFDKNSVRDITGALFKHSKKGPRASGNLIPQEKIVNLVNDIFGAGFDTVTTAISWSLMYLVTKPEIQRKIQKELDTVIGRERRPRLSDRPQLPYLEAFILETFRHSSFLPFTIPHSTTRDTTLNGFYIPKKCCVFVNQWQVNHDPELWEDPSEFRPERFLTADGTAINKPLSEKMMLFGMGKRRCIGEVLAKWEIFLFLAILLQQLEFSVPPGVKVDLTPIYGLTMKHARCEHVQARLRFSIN

Cytochrome P450 3A4 = Cytochrome P450 3A4 (Homo sapiens, UniProt P08684);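 also: CYP3A4 tested as one member of a cytochrome P450 panel screen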
Sequence of Cytochrome P450 3A4 (P08684 whole entry): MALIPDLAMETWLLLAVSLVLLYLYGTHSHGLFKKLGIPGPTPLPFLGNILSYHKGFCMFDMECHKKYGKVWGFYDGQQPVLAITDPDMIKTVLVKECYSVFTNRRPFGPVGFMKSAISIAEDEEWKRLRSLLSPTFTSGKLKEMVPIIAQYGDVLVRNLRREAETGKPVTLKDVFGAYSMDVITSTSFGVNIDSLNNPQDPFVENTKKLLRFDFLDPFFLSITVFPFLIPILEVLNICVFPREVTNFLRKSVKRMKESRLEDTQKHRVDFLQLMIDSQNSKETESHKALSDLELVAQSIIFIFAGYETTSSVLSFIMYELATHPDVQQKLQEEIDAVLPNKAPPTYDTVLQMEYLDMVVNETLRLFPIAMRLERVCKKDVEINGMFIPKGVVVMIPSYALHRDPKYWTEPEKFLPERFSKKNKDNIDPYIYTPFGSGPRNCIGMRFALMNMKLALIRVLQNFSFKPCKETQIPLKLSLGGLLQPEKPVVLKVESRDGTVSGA

## CCOc1cc(/C=N/n2cnnc2)cc(Br)c1O
Coagulation factor XII
  IC50: > 50 µM (inactive)

## CCOC(=O)c1sc(N)c(C#N)c1COC(=O)CNC(=O)c1cc(OC)c(OC)c(OC)c1
Troponin, cardiac muscle
  EC50: 11.1 µM (inactive)

## CC1CCCN(c2ccc([N+](=O)[O-])cc2C(=O)c2ccccc2)C1 (stereo not given)
BJ [1]
  EC50: 1.27 µM (active)
BJ [2]
  EC50: 1.32 µM (active)
BJ [3]
  EC50: 0.657 µM (inconclusive)
[4]
  EC50: 1.29 µM (active)
Jurkat
  IC50: 40.6 µM (inactive)
[5]
  IC50: > 80 µM (inactive)
BJ [6]
  EC50: 0.314 µM (active)
[7]
  EC50: 12.2 µM (inactive)

## CC(=O)Nc1nonc1NC(=O)CSc1ccccn1
Coagulation factor XII
  IC50: > 50 µM (inactive)

## CCn1c(=O)cc(SCC(=O)NCCCN2CCN(c3ccccc3F)CC2)c2ccccc21
[8]
  EC50: > 79.4 µM (inactive)
[9]
  EC50: > 79.4 µM (not active)
[10]
  EC50: > 79.4 µM (not active)
[11]
  IC50: > 20 µM (inactive)
Mu-type opioid receptor
  EC50: 92.6 µM (inactive)
[12]
  EC50: 0.0169 µM (active)

## Cc1ccc(/N=c2\ssnc2Cl)nc1
[13]
  IC50: > 100 µM (inactive)
Phosphomannomutase 2
  IC50: > 100 µM (inactive)

## CCOc1cc(S(=O)(=O)NCc2ccncc2)ccc1Cl
Jurkat
  IC50: > 80 µM (inactive)
[5]
  IC50: > 80 µM (inactive)
INS1
  AC50: 0.848 µM (active)
[14]
  AC50: < 0.26 µM (active)
[15]
  AC50: 0.45 µM (active)
[16]
  AC50: < 0.26 µM (active)
Galanin receptor type 3
  IC50: 0.581 µM (active)
cells
  EC50: > 29.9 µM (inactive)
[17]
  IC50: 2.29 µM (active)

## O=C(COc1ccccc1)Nc1cccc(-c2cn3cccnc3n2)c1
[18]
  AC50: 10.4 µM (active)
[19]
  AC50: 3.85 µM (active)

## O=C([O-])Cc1ccccc1Nc1c(Cl)cccc1Cl.[Na+] [DICLOFENAC SODIUM]
Cytochrome P450 2C19
  AC50: inactive
Cytochrome P450 2D6
  AC50: inactive
Cytochrome P450 1A2
  AC50: inactive
Cytochrome P450 3A4
  AC50: inconclusive

## COc1ccc(C(=O)N2CCC3(CCCN(C(=O)NC(C)C)C3)CC2)cc1
Cytochrome P450 1A2
  AC50: inactive
